The target of one data set is hERG channel (IKr) (Homo sapiens (Human), UniProt Q12809). The data set can be described thus: hERG test (whole cell patch clamp, IKr). It counts as cell-based. The note with it: human, CHO cells expressing hERG channel, pH 7.4, 3 μM, tail peak current. From the text: Test Example 10: hERG Test
For the purpose of assessing risk of an electrocardiogram QT interval prolongation of the compound of the present invention, effects of the compound of the present invention on delayed rectifier K+ current (IKr), which plays an important role in the ventricular repolarization process, was studied using CHO cells expressing human ether-a-go-go related gene (hERG) channel.
After a cell was retained at a membrane potential of −80 mV by whole cell patch clamp method using an automated patch clamp system (QPatch; Sophion Bioscience A/S) and gave a leak potential of −50 mV, IKr induced by depolarization pulse stimulation at +20 mV for 2 seconds and, further, repolarization pulse stimulation at −50 mV for 2 seconds, was recorded. After the generated current was stabilized, extracellular solution (NaCl: 145 mmol/L, KCl: 4 mmol/L, CaCl2): 2 mmol/L, MgCl2: 1 mmol/L, glucose: 10 mmol/L, HEPES (4-(2-hydroxyethyl)-1-piperazineethanesulfonic acid): 10 mmol/L, pH=7.4), in which the compound of the present invention had been dissolved at an objective concentration in the extracellular solution, was applied to the cell at room temperature for 7 minutes or more. From the recording IKr, an absolute value of the tail peak current was measured based on the current value at the resting membrane potential using analysis software (QPatch Assay software; Sophion Bioscience A/S). Further, the % inhibition of tail peak current for the compound of the present invention relative to the tail peak current after application of the solution (0.1% dimethyl sulfoxide solution) was calculated to assess influence of the compound of the present invention on IKr.
A general note: Block of hERG is tested as a sign of cardiac risk.

The target of data set [1] is human recombinant dopamine D3 receptor (Homo sapiens (Human), UniProt P35462). In words: Test of binding inhibition for dopamine D3 receptor ([3H]-Methylspiperone SPA). The note with it: Jump-In HEK cell membranes, 2 nM [3H]-Methylspiperone, 120 min at 25° C.; read-out: hD3_Ki. A digest of the protocol: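 SPA radioligand binding on Jump-In HEK membranes expressing human D3 receptor (4 µg/well) with 2 nM [3H]-methylspiperone (final), incubated 120 min at 25 °C. Non-specific binding defined with 10 µM butaclamol. Percent inhibition computed against total and non-specific binding; Ki from dose-response curves.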

Data set [2] concerns the target human recombinant dopamine D2 receptor (Homo sapiens (Human), UniProt P14416). In words: Test of binding inhibition for dopamine D2 receptor ([3H]-Methylspiperone SPA). The note with it: Jump-In HEK cell membranes, 1.2 nM [3H]-Methylspiperone, 120 min at 25° C.; read-out: hD2_Ki. The gist of the method: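 Scintillation proximity competition binding of [3H]-Methylspiperone to Jump-In HEK membranes expressing human D2 (2 μg protein/well) on WGA SPA beads (0.2 mg/well), 120 min at 25° C.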

pKi: −log10 of the molar value. Where only a bound is given, the exact number is not on record here.

Sequence of human recombinant dopamine D2 receptor (P14416 whole entry): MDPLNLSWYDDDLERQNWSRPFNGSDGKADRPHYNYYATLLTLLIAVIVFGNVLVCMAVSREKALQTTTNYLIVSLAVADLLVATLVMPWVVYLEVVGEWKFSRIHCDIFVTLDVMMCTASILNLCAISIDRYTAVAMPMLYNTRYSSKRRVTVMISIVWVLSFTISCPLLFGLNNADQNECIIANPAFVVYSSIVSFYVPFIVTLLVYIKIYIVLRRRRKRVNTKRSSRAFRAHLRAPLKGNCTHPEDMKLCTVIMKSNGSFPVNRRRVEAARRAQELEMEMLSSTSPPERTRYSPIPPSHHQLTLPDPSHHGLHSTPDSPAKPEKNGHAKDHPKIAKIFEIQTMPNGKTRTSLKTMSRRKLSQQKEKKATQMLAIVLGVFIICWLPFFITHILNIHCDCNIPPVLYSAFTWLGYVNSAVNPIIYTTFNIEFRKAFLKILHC
Sequence of hERG channel (IKr) (Q12809 whole entry): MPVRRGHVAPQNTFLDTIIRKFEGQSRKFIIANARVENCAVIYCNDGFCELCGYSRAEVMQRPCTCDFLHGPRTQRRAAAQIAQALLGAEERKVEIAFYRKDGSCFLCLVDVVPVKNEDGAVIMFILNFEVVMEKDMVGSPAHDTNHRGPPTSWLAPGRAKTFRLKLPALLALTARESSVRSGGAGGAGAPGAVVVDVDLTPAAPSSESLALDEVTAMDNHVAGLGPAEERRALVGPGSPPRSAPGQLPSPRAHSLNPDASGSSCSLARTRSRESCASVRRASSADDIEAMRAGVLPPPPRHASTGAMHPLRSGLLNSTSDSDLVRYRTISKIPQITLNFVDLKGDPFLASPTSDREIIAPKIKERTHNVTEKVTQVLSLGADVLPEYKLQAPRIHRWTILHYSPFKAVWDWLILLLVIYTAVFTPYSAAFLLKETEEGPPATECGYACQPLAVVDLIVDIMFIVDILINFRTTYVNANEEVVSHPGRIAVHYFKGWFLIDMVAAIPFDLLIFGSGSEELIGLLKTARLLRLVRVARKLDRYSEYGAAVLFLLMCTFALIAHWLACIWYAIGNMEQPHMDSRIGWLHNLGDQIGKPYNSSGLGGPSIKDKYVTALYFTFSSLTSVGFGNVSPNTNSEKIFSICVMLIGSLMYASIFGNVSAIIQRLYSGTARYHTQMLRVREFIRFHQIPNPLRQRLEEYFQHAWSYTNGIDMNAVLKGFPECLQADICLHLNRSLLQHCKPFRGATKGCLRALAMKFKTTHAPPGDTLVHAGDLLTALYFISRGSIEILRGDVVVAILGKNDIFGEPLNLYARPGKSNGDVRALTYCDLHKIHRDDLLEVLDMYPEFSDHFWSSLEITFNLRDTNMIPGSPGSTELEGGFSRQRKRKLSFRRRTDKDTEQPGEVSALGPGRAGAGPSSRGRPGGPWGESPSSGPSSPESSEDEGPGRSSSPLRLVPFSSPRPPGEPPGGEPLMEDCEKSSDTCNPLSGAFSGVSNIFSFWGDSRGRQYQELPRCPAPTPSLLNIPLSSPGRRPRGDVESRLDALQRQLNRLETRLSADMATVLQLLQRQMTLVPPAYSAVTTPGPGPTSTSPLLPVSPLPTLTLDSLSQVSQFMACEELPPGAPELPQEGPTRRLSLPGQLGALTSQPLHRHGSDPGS
Sequence of human recombinant dopamine D3 receptor (P35462 whole entry): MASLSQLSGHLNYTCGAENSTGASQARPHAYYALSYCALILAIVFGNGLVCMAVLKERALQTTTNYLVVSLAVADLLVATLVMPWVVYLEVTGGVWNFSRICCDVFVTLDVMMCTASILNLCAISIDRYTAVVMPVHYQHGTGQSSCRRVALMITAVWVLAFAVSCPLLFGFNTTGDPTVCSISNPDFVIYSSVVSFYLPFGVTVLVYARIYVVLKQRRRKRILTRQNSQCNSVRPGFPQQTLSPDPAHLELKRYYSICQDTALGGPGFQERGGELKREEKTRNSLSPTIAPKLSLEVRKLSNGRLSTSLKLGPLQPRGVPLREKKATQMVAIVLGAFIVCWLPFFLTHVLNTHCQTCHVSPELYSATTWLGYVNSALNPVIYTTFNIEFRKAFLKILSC

For orientation: inhibition means the share of the control response that was lost under treatment. Higher therefore signals strong suppression. On hERG channel (IKr), `Cc1cnc(CC(=O)N[C@H]2CC[C@](F)(CCN3CCc4nc(OCC(F)F)sc4CC3)CC2)o1` [Example I-038] showed an inhibition at 3 µM of 21.4%. In addition, the pKi in data set [1] was 9.09; in data set [2], under 5.77.
Regarding `Cc1nc(CC(=O)N[C@H]2CC[C@](F)(CCN3CCc4nc(OCC(F)F)sc4CC3)CC2)no1` [Example I-039], on hERG channel (IKr), the inhibition at 3 µM was 22.3%. Besides, the pKi in data set [1] was 9.00; in data set [2] it was 5.92.
On hERG channel (IKr), `Cc1nnc(CC(=O)N[C@H]2CC[C@](F)(CCN3CCc4nc(OCC(F)F)sc4CC3)CC2)s1` [Example I-040] registered an inhibition at 3 µM of 23.2%. Moreover, the pKi in data set [1] was 9.34; in data set [2] it was 6.05.
Taken in the same sequence, the figures for `Cc1cnc(CC(=O)N[C@H]2CC[C@H](CCN3CCc4sc(C5CC(F)(F)C5)nc4C3)CC2)o1` [Example I-041] were 18.1%, 9.77 and 6.21.
Turning to `Cc1ncccc1C(=O)N[C@H]1CC[C@](F)(CCN2CCc3nc(OCC(C)(F)F)sc3CC2)CC1` [Example I-042], at hERG channel (IKr), the inhibition at 3 µM worked out at 10.8%. For the same molecule, the values for the pKi in data set [1] and in data set [2] were 9.24 and 6.00, respectively.
Regarding `Cc1ncc(CC(=O)N[C@H]2CC[C@](F)(CCN3CCc4nc(OCC(C)(F)F)sc4CC3)CC2)o1` [Example I-043], the inhibition at 3 µM against hERG channel (IKr) was found to be 20.7%. Also, the pKi in data set [1] was 9.92; in data set [2], 6.01.
At hERG channel (IKr), `Cc1ncc(OCC(=O)N[C@H]2CC[C@](F)(CCN3CCc4nc(OCC(C)(F)F)sc4CC3)CC2)cn1` [Example I-044] displayed an inhibition at 3 µM of 23.7%. The pKi in data set [1] is 9.85; in data set [2], 6.21.
For `Cc1cnc(OCC(=O)N[C@H]2CC[C@H](CCN3CCc4sc(OCC(C)(F)F)nc4C3)CC2)cn1` [Example I-046], in that order: 14.3%, 9.47 and 6.30.
Taken in the same sequence, the figures for `O=C(N[C@H]1CC[C@H](CCN2CCc3nc(OCC(F)(F)F)sc3CC2)CC1)c1cccnc1C(F)F` [Example I-048] were 3.52%, 10.32 and 6.41.
In the case of `Cn1c(C(=O)N[C@H]2CC[C@H](CCN3CCc4nc(OCC(C)(F)F)sc4CC3)CC2)cccc1=O` [Example I-056], the inhibition at 3 µM against hERG channel (IKr) amounted to 10.7%. Moreover, the pKi in data set [1] is 9.62; in data set [2], 6.31.
On hERG channel (IKr), `Cn1cc(CC(=O)N[C@H]2CC[C@](F)(CCN3CCc4nc(OCC(F)F)sc4CC3)CC2)cn1` [Example I-059] showed an inhibition at 3 µM of 6.72%. Also, the pKi is 9.16 in data set [1] and under 5.77 in data set [2].
Take `Cc1ncc(CC(=O)N[C@H]2CC[C@](F)(CCN3CCc4nc(OCC(F)F)sc4CC3)CC2)o1` [Example I-060]: at 3 µM the inhibition at hERG channel (IKr) was 17.7%. The figures for the pKi in data set [1] and in data set [2] were 9.23 and 5.85, respectively.
`Cn1cc2ccc(C(=O)N[C@H]3CC[C@H](CCN4CCc5nc(OCC(C)(F)F)sc5CC4)OC3)cc2n1` [Example I-066] had an inhibition at 3 µM on hERG channel (IKr) of 14.3%. Moreover, the pKi in data set [1] is 9.43; in data set [2] it was 6.11.
Turning to `Cc1ncc(OCC(=O)N[C@H]2CC[C@H](CCN3CCc4sc(C5CC(F)(F)C5)nc4C3)CC2)cn1` [Example I-069], testing at 3 µM against hERG channel (IKr) gave an inhibition of 34.2%. In addition, the pKi was 9.31 in data set [1] and 6.17 in data set [2].
At hERG channel (IKr), `Cc1nnc(CC(=O)N[C@H]2CC[C@H](CCN3CCc4sc(C5CC(F)(F)C5)nc4C3)CC2)s1` [Example I-071] came in with an inhibition at 3 µM of 16.6%. For the same molecule, the pKi in data set [1] is 9.80; in data set [2], 6.35.
At hERG channel (IKr), `Cc1nnc(CC(=O)N[C@H]2CC[C@](F)(CCN3CCc4nc(OCC(C)(F)F)sc4CC3)CC2)s1` [Example I-073] yielded an inhibition at 3 µM of 25.9%. The pKi in data set [1] was 9.54; in data set [2], 6.35.
`Cn1cc(/C=C/C(=O)N[C@H]2CC[C@](F)(CCN3CCc4nc(OCC(C)(F)F)sc4CC3)CC2)cn1` [Example I-074]: testing at 3 µM against hERG channel (IKr) gave an inhibition of 31%. Besides, the pKi is 10.60 in data set [1] and 7.20 in data set [2].

The values are drawn from patent US11578084B2, “Condensed ring compounds having dopamine D3 receptor antagonistic effect” (Shionogi & Co., Ltd., priority 2018, dated 2023).
